# According to paper PMC3165084 (Leukemia, 2011):
# Several values for one entry are separate records, joined by “and”; a condition that tells them apart may be missing. Identical values can stand only once.
# Assay: Plasma pharmacokinetics of tipifarnib, LCMS/MS, non-compartmental analysis
# Type: in vivo, human
# [1] = Day 1, 1200 mg, plasma, individual subjects 4-10
# [2] = Day 1, 1400 mg, plasma, individual subjects 1-3
# [3] = Day 5, 1200 mg bid, plasma, individual subjects 4-10
smiles,measurement,setting,value
"Cn1cncc1[C@@](N)(c1ccc(Cl)cc1)c1ccc2c(c1)c(-c1cccc(Cl)c1)cc(=O)n2C [tipifarnib, Tipifarnib]",Cmin,[1],132 ng/mL and 339 ng/mL and 166 ng/mL and 82 ng/mL and 402 ng/mL
same,Tmax,[1],3.0 h
same,"Cmin, low","Day 1, 1400 mg, plasma",145 ng/mL
same,"Cmin, median","Day 1, 1400 mg, plasma",237 ng/mL
same,Cmin,[2],329 ng/mL and 145 ng/mL
same,Tmax,[2],3.2 h
same,AUC12h,[3],4815 ng·h/mL and 7001 ng·h/mL and 7787 ng·h/mL and 9221 ng·h/mL
same,Cmax,[3],1880 ng/mL and 2490 ng/mL and 1020 ng/mL
same,Cmin,[3],97 ng/mL and 204 ng/mL and 234 ng/mL and 283 ng/mL and 166 ng/mL and 113 ng/mL and 101 ng/mL
same,Tmax,[3],3.0 h and 3.1 h and 2.8 h
same,Cmin,"Day 5, 1400 mg bid, plasma, individual subjects 1-3",781 ng/mL and 170 ng/mL
same,tipifarnib accumulation between days 1 and 5,at 1200 and 1400 mg bid,relatively modest
same,AUC(0-t),"human, plasma, oral, 1200 mg, AUC12h, high, Day 1, 1200 mg, plasma",15700 ng·h/mL
same,AUC(0-t),"human, plasma, oral, 1200 mg, AUC12h, high, Day 5, 1200 mg bid, plasma",14200 ng·h/mL
same,AUC(0-t),"human, plasma, oral, 1200 mg, AUC12h, low, Day 1, 1200 mg, plasma",3240 ng·h/mL
same,AUC(0-t),"human, plasma, oral, 1200 mg, AUC12h, low, Day 5, 1200 mg bid, plasma",4620 ng·h/mL
same,AUC(0-t),"human, plasma, oral, 1200 mg, AUC12h, median, Day 1, 1200 mg, plasma",4740 ng·h/mL
same,AUC(0-t),"human, plasma, oral, 1200 mg, AUC12h, median, Day 5, 1200 mg bid, plasma",7370 ng·h/mL
same,Cmax,"human, plasma, oral, 1200 mg, Cmax, high, Day 1, 1200 mg, plasma",3160 ng/mL
same,Cmax,"human, plasma, oral, 1200 mg, Cmax, high, Day 5, 1200 mg bid, plasma",2500 ng/mL
same,Cmax,"human, plasma, oral, 1200 mg, Cmax, low, Day 1, 1200 mg, plasma",404 ng/mL
same,Cmax,"human, plasma, oral, 1200 mg, Cmax, low, Day 5, 1200 mg bid, plasma",762 ng/mL
same,Cmax,"human, plasma, oral, 1200 mg, Cmax, median, Day 1, 1200 mg, plasma",906 ng/mL
same,Cmax,"human, plasma, oral, 1200 mg, Cmax, median, Day 5, 1200 mg bid, plasma",1210 ng/mL
same,concentration at 5 day,"human, plasma, oral, 1200 mg, Cmin, high, Day 5, 1200 mg bid, plasma",283 ng/mL
same,concentration at 5 day,"human, plasma, oral, 1200 mg, Cmin, low, Day 5, 1200 mg bid, plasma",97 ng/mL
same,concentration at 5 day,"human, plasma, oral, 1200 mg, Cmin, median, Day 5, 1200 mg bid, plasma",166 ng/mL
same,Tmax,"human, plasma, oral, 1200 mg, Tmax, high, Day 1, 1200 mg, plasma",3 h
same,Tmax,"human, plasma, oral, 1200 mg, Tmax, high, Day 5, 1200 mg bid, plasma",5 h
same,Tmax,"human, plasma, oral, 1200 mg, Tmax, low, Day 1, 1200 mg, plasma",2 h
same,Tmax,"human, plasma, oral, 1200 mg, Tmax, low, Day 5, 1200 mg bid, plasma",1 h
same,Tmax,"human, plasma, oral, 1200 mg, Tmax, median, Day 1, 1200 mg, plasma",2.1 h
same,Tmax,"human, plasma, oral, 1200 mg, Tmax, median, Day 5, 1200 mg bid, plasma",3 h
same,AUC(0-t),"human, plasma, oral, 1400 mg, AUC12h, high, Day 1, 1400 mg, plasma",18700 ng·h/mL
same,AUC(0-t),"human, plasma, oral, 1400 mg, AUC12h, high, Day 5, 1400 mg bid, plasma",25600 ng·h/mL
same,AUC(0-t),"human, plasma, oral, 1400 mg, AUC12h, low, Day 1, 1400 mg, plasma",8950 ng·h/mL
same,AUC(0-t),"human, plasma, oral, 1400 mg, AUC12h, low, Day 5, 1400 mg bid, plasma",8710 ng·h/mL
same,AUC(0-t),"human, plasma, oral, 1400 mg, AUC12h, median, Day 1, 1400 mg, plasma",13800 ng·h/mL
same,AUC(0-t),"human, plasma, oral, 1400 mg, AUC12h, median, Day 5, 1400 mg bid, plasma",17100 ng·h/mL
same,Cmax,"human, plasma, oral, 1400 mg, Cmax, high, Day 1, 1400 mg, plasma",4240 ng/mL
same,Cmax,"human, plasma, oral, 1400 mg, Cmax, high, Day 5, 1400 mg bid, plasma",3890 ng/mL
same,Cmax,"human, plasma, oral, 1400 mg, Cmax, low, Day 1, 1400 mg, plasma",1690 ng/mL
same,Cmax,"human, plasma, oral, 1400 mg, Cmax, low, Day 5, 1400 mg bid, plasma",1370 ng/mL
same,Cmax,"human, plasma, oral, 1400 mg, Cmax, median, Day 1, 1400 mg, plasma",3920 ng/mL
same,Cmax,"human, plasma, oral, 1400 mg, Cmax, median, Day 5, 1400 mg bid, plasma",2630 ng/mL
same,concentration at 12 h,"human, plasma, oral, 1400 mg, Cmin, high, Day 1, 1400 mg, plasma",329 ng/mL
same,concentration at 5 day,"human, plasma, oral, 1400 mg, Cmin, high, Day 5, 1400 mg bid, plasma",781 ng/mL
same,concentration at 5 day,"human, plasma, oral, 1400 mg, Cmin, low, Day 5, 1400 mg bid, plasma",170 ng/mL
same,concentration at 5 day,"human, plasma, oral, 1400 mg, Cmin, median, Day 5, 1400 mg bid, plasma",476 ng/mL
same,Tmax,"human, plasma, oral, 1400 mg, Tmax, high, Day 1, 1400 mg, plasma",3.2 h
same,Tmax,"human, plasma, oral, 1400 mg, Tmax, high, Day 5, 1400 mg bid, plasma",5 h
same,Tmax,"human, plasma, oral, 1400 mg, Tmax, low, Day 1, 1400 mg, plasma",2 h
same,Tmax,"human, plasma, oral, 1400 mg, Tmax, low, Day 5, 1400 mg bid, plasma",3 h
same,Tmax,"human, plasma, oral, 1400 mg, Tmax, median, Day 1, 1400 mg, plasma",3.1 h
same,Tmax,"human, plasma, oral, 1400 mg, Tmax, median, Day 5, 1400 mg bid, plasma",4 h
same,AUC(0-t),"human, plasma, oral, median AUC12h, remaining patients, day 1",7580 ng·h/mL
same,AUC(0-t),"human, plasma, oral, median AUC12h, remaining patients, day 5",4320 ng·h/mL
same,AUC(0-t),"human, plasma, oral, median AUC12h, two patients with decreased blasts, day 1",16300 ng·h/mL
same,AUC(0-t),"human, plasma, oral, median AUC12h, two patients with decreased blasts, day 5",13200 ng·h/mL
same,Cmax,"human, plasma, oral, median Cmax, remaining patients, day 1",1290 ng/mL
same,Cmax,"human, plasma, oral, median Cmax, remaining patients, day 5",881 ng/mL
same,Cmax,"human, plasma, oral, median Cmax, two patients with decreased blasts, day 1",2440 ng/mL
same,Cmax,"human, plasma, oral, median Cmax, two patients with decreased blasts, day 5",2550 ng/mL
same,fold higher median AUC and Cmax in the two patients with decreased blasts vs median of the non-responders,on both day 1 and day 5,2–3 fold
same,pharmacokinetic behavior (dose linearity),present data taken together with earlier studies,linear up to doses as high as 1400 mg bid
